Several values for one entry are separate records, joined by “and”; a condition that tells them apart may be missing. Equal values may be shown once.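 Dose response: 5 concentrations. Exposure: 48 h. Format: 96-well plates. Endpoint: linear interpolation; highest concentration if not reached. At the GI50, growth is halved. TGI: total growth inhibition.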
Legend:
Experiment in all cases: NCI tumour cell line growth inhibition, 48 h
HCC-2998 colon = test system: HCC-2998 colon
HOP-62 NSCLC = test system: HOP-62 NSCLC
SNB-78 CNS = test system: SNB-78 CNS
SF-539 CNS = test system: SF-539 CNS
A549 NSCLC = test system: A549 NSCLC
SN12C renal = test system: SN12C renal
ACHN renal = test system: ACHN renal
HOP-18 NSCLC = test system: HOP-18 NSCLC
SK-MEL-5 melanoma = test system: SK-MEL-5 melanoma
RXF 393 renal = test system: RXF 393 renal

| Structure (SMILES) | TGI (HCC-2998 colon) [µM] | TGI (HOP-62 NSCLC) [µM] | TGI (SNB-78 CNS) [µM] | TGI (SF-539 CNS) | TGI (A549 NSCLC) [µM] | TGI (SN12C renal) [µM] | TGI (ACHN renal) [µM] | TGI (HOP-18 NSCLC) | TGI (SK-MEL-5 melanoma) [µM] | TGI (RXF 393 renal) | GI50 (HCC-2998 colon) [µM] | GI50 (HOP-62 NSCLC) [µM] | GI50 (SNB-78 CNS) [µM] | GI50 (SF-539 CNS) [µM] | GI50 (A549 NSCLC) [µM] | GI50 (SN12C renal) [µM] | GI50 (RXF 393 renal) [µM] | GI50 (ACHN renal) [µM] | GI50 (HOP-18 NSCLC) [µM] | GI50 (SK-MEL-5 melanoma) [µM] |
| --- | --- | --- | --- | --- | --- | --- | --- | --- | --- | --- | --- | --- | --- | --- | --- | --- | --- | --- | --- | --- |
| CSc1ccc(-c2cn3ccsc3n2)c(O)c1 | > 100 | > 100 | > 100 | > 57.3 µM | > 100 | > 100 | > 100 | > 100 µM | > 100 | – | – | – | – | – | – | – | – | – | – | – |
| CN1C(=O)n2c(nc3ccccc32)C(N=[N+]=[N-])(N=[N+]=[N-])C1=O (configuration not stated) | > 100 | > 100 | > 100 | > 100 µM | > 100 | – | > 100 | > 100 µM | > 100 | > 100 µM | – | – | – | – | – | – | – | – | – | – |
| O=C(OC(C(=O)O)C(OC(=O)c1ccccc1)C(=O)O)c1ccccc1 (configuration not stated) (tested in a mixture with another compound) | > 100 | > 100 | > 100 | > 100 µM | > 100 | > 100 | > 100 | 9.71 µM and 84.2 µM | 43.2 | > 100 µM | – | – | – | – | – | – | – | – | – | – |
| CC[O-].CC[O-].[O-]c1ccccc1C=Nc1ccccc1.[O-]c1ccccc1C=Nc1ccccc1.[Ti+4] | > 100 | > 100 | > 100 | > 100 µM | > 100 | > 100 | > 100 | > 100 µM | > 100 | > 100 µM | 82.9 | > 100 | > 100 | > 100 | > 100 | > 100 | > 100 | 23.8 | > 100 | 45.5 |
| C/C(CC(=O)CCCC(=O)Nc1ccc(Cl)cc1Cl)=N/NC(=O)CC#N | > 100 | – | > 100 | > 100 µM | > 100 | > 100 | > 100 | > 100 µM | > 100 | > 100 µM | – | – | – | – | – | – | – | – | – | – |
| C[C@]12CCC[C@H](OC=O)C1(O)C[C@H](C(=O)O)CC2 (some centres not stated) | > 100 | > 100 | > 100 | > 100 µM | > 100 | > 100 | > 100 | > 100 µM | > 100 | > 100 µM | – | – | – | – | – | – | – | – | – | – |
| N=c1nc(N)c2cc3c(N)nc(=N)c3cc12 | > 100 | 38.5 | 48.5 | 31.5 µM | > 100 | 23.5 | > 100 | 41.5 µM | > 100 | 25.3 µM | – | – | – | – | – | – | – | – | – | – |
| COc1cccc(/C=C(/C(=O)O)c2cc(OC)c(OC)c(OC)c2)c1 | – | > 100 | > 100 | > 100 µM | > 100 | > 100 | > 100 | > 100 µM | > 100 | > 100 µM | – | – | – | – | – | – | – | – | – | – |
| CC1=CC2=C(OCO1)C(=O)c1ccccc1C2=O | > 100 | 15.1 | > 100 | 12.8 µM | 38.9 | 11.4 | 18.6 | 27.1 µM | 5.27 | 12.5 µM | – | – | – | – | – | – | – | – | – | – |
| O=c1c(O)c(-c2ccc(O)c(O)c2)oc2cc(O)ccc12 | 41.9 | > 100 | 67.2 | 26.7 µM | > 100 | 56.4 | > 91 | 52.2 µM | 27.4 | 47 µM | – | – | – | – | – | – | – | – | – | – |
| Cc1cc(N(CCC#N)CCC#N)ccc1/C=C1/CN(N2C(=O)/C(=C/c3ccc(N(CCC#N)CCC#N)cc3C)N=C2c2ccccc2)C(c2ccccc2)=N1 | > 100 | > 100 | > 100 | > 100 µM | > 100 | > 100 | > 100 | > 100 µM | > 100 | 76.8 µM | – | – | – | – | – | – | – | – | – | – |
| Nn1c(CCCl)nc2c(Br)cc(Br)cc2c1=O | > 100 | 71.8 | > 100 | > 91.4 µM | > 100 | > 84.2 | > 74.7 | > 100 µM | 37.8 | > 100 µM | – | – | – | – | – | – | – | – | – | – |
| COc1ccc2[nH]c3c4c(c5cc(C(C)(C)C)ccc5c3c2c1)C(=O)N(c1ccccc1)C4=O | 47.4 | > 100 | > 100 | 49 µM | > 100 | – | – | > 100 µM | > 100 | > 100 µM | – | – | – | – | – | – | – | – | – | – |
| CC(=O)CC(=O)N(CCN(C(=O)CC(C)=O)c1ccccc1)c1ccccc1 | > 100 | > 100 | > 100 | > 100 µM | > 100 | > 100 | > 100 | > 100 µM | > 100 | > 100 µM | – | – | – | – | – | – | – | – | – | – |
| C=C(C)C(=O)NC(N)=NC#N | 261 | 362 | 398 | 73.3 µM and 290 µM | 307 | 199 | 271 | > 57.4 µM and 240 µM | 310 | 65.7 µM and 200 µM | – | 206 | 167 | 154 | – | 72.1 | 63 | 68 | 115 | 171 |
| O=C1c2ccccc2C(=O)N1/N=C\c1ccc(Br)cc1 | > 100 | > 100 | > 100 | > 100 µM | > 100 | > 100 | > 100 | > 10 µM | > 100 | > 10 µM | > 100 | > 100 | > 100 | > 100 | > 100 | > 100 | – | > 100 | – | > 100 |
| COc1cc(C(=O)C/C(CCC(=O)Nc2ccccc2[N+](=O)[O-])=N\NC(=O)C(N)=O)ccc1O | – | > 100 | > 100 | > 100 µM | > 100 | – | > 100 | > 100 µM | – | > 100 µM | – | – | – | – | – | – | – | – | – | – |

Reference: PubChem BioAssay (NCI)
